Counter-ions that a name gives are not always drawn.
Key:
DAT [1] = molecular target: T1, DAT (Rattus norvegicus, UniProt P23977); test: In vitro preincubation of striatal synaptosomes with MDMA: [3H]DA uptake and WIN35428 binding; type: biochemical; conditions: 10 μM inhibitor 5 min, then 10 μM MDMA 30 min at 37° C.
T1 construct: from tissue; host or cells: striatum of male Sprague-Dawley rats (synaptosomes, P2)
Method: (§1) Uptake of [^3H]DA was determined in striatal synaptosomes prepared according to the method described by Kokoshka et al. (1998). Briefly, fresh striatal tissue was homogenized in cold 0.32 M sucrose and centrifuged (800×g for 12 min; 4° C.). The supernatant (S1) was then centrifuged (22,000×g for 15 min; 4° C.), and the resulting pellet (P2) was resuspended in ice-cold modified Kreb's buffer (in mM: 126 NaCl, 4.8 KCl, 1.3 CaCl2, 16 sodium phosphate, 1.4 MgSO4, 11 dextrose, 1-ascorbic acid, pH 7.4). Assays were conducted in Kreb's buffer. Each assay tube contained synaptosomal tissue (i.e., resuspended P2 obtained from 1.5 mg of original wet weight striatal tissue) and 1 μM pargyline. Nonspecific values were determined in the presence of 100 μM cocaine. After preincubation of assay tubes for 10 min at 37° C., assays were initiated by the addition of [^3H]DA (0.5 nM final concentration). Samples were incubated at 37° C. for 3 min. Samples were then filtered through Whatman GF/B filters (Brandel, Gaithersburg, Md.) soaked previously in 0.05% polyethylenimine. Filters were washed rapidly 3 times with 3 ml of ice-cold 0.32 M sucrose using a Brandel filtering manifold. […] Remaining resuspended P2 samples were assayed for protein concentrations according to the method of Lowry et al. (1951). In MDMA preincubation experiments, samples were preincubated with 10 μM MDMA for 30 min at 37° C. After 30 min, resuspended P2 fractions were “washed” by centrifugation (22,000×g for 15 min; 4° C.). The resulting pellet (P3) was then resuspeded in ice-cold Kreb's buffer, and once again centrifuged (22,000×g for 15 min; 4° C.) to obtain a P4 pellet that was subsequently resuspended and assayed. [^3H]WIN35428 binding (0.5 nM final concentration) was conducted in phosphate-buffered 0.32 M sucrose, pH 7.4, with synaptosomes obtained from 2 mg (original wet weight) of striatal tissue per reaction tube, and samples were incubated on ice for 2 hr. Samples were then filtered through Whatman GF/B filters (Brandel, Gaithersburg, Md.) soaked previously in 0.05% polyethylenimine. Filters were washed rapidly 3 times with 3 ml of ice-cold 0.32 M sucrose using a Brandel filtering manifold. […] Remaining resuspended P2 samples were assayed for protein concentrations according to the method of Lowry et al. (1951).

VMAT-2 [2] = test: VMAT-2 immunoreactivity in striatal subcellular fractions (P2, P3, S3) of treated rats (Western blot); type: in vivo, rat; conditions: 1 h
Method: Striatal synaptosomes were prepared from rats decapitated 1 h after treatment as previously described (Fleckenstein et al., 1997). Briefly, striatal tissue was homogenized in cold 0.32 M sucrose and centrifuged (800×g for 12 min; 4° C.). The supernatant (S1) was then centrifuged (22,000×g for 15 min; 4° C.) and the resulting pellet (P2, synaptosomal fraction) was resuspended at 50 mg original wet weight/ml in cold water and a portion saved for western blot analysis. The remainder of the synaptosomal sample was centrifuged for 20 min at 22,000×g (4° C.) to pellet lysed synaptosomal membranes (P3, synaptosomal membrane fraction), which were then resuspended at 50 mg original wet weight/ml and saved for western blot analysis. Prior to resuspension of the plasmalemmal membrane fraction the supernatant (S3, vesicle-enriched fraction) was removed and saved for western blot analysis.
Binding of VMAT-2 antibody was performed using 60 μl aliquots of synaptosomal (P2), synaptosomal membrane (P3), or vesicle-enriched (S3) preparations. Each aliquot was added to 20 μl of loading buffer (final concentration: 2.25% sodium dodecyl sulfate, 18% glycerol, 180 mM Tris base (pH 6.8), 10% β-mercapto-ethanol and bromophenol blue), boiled for 10 min, and loaded on a 10% sodium dodecyl sulfate-polyacrylamide gel. Following electrophoresis, samples were transferred to polyvinlylidene difluoride membrane, blocked with 5% nonfat dry milk in Tris-buffered saline with tween (250 mM NaCl, 50 mM Tris pH 7.4 and 0.05% Tween 20), and probed with the VMAT-2 antibody (provided by J.W.H.). Bound antibody was visualized with HRP-conjugated goat anti-rabbit antibody, and antigen-antibody complexes were visualized by chemiluminescence. Multiple exposures of blots were obtained to ensure development within the linear range of the film. Bands on blots were quantified by densitometry using Kodak 1D image-analysis software.
Fresh striatal tissue was homogenized in ice-cold 0.32 M sucrose and centrifuged (800×g for 12 min; 4° C.). […] Resuspended tissue was aliquoted into two test tubes. One aliquot was centrifuged (22,000×g for 10 min; 4° C.) to separate plasmalemmal membranes from the synaptic vesicle-enriched fraction. The resulting supernatant (S3) contained the vesicular subcellular fraction of interest, and the pellets (P3; plasmalemmal membrane fraction) were resuspended in cold distilled deionized water.
VMAT-2 antibody was purchased from Chemicon (Temecula, Calif.; AB1767). Binding of VMAT-2 antibody was performed using 60 μl of whole synaptosomal, plasmalemmal membrane or vesicle subcellular fractions. Samples were added to 20 μl of loading buffer (final concentration: 2.25% SDS, 18% glycerol, 180 mM Tris Base (pH 6.8), 10% […] and bromophenol blue). Approximately 60 μg protein of the whole synaptosomal fraction, 40 μg protein of the plasmalemmal membrane fraction or 20 μg protein of the vesicle subcellular fraction was loaded per well in a 10% SDS-polyacrylamide gel. Following electrophoresis, samples were transferred to polyvinylidene difluoride hybridization transfer membrane (New England Nuclear (NEN), Boston, Mass.). All subsequent incubation steps were performed at room temperature while shaking. Each membrane was first blocked for 2 h in 100 ml of tris buffer saline with tween (TBST; 250 mM NaCl, 50 mM tris pH 7.4 and 0.05% tween 20) containing 5% nonfat dry milk. Each membrane was then incubated with anti-VMAT-2 antibody (1:4000 dilution) in 13 ml of TBST with 5% milk for 1 h and then washed 5 times (2×1 min wash; 3×5 min wash) in 70 ml TBST with 5% milk.

[3] = molecular target: T2, plasmalemmal DA transporter (DAT) (Rattus norvegicus, UniProt P23977); test: Plasmalemmal [3H]DA uptake in striatal synaptosomes prepared from treated rats; type: in vivo; conditions: αMT 150 mg/kg i.p. 5 and 1 h prior to and 3 h after first MDMA injection, MDMA 4 x 10 mg/kg s.c.
T2 construct: from tissue; host or cells: striatum of male Sprague-Dawley rats (synaptosomes, P2)
Method: Uptake of [^3H]DA was determined in striatal synaptosomes prepared according to the method described by Kokoshka et al. (1998). Briefly, fresh striatal tissue was homogenized in cold 0.32 M sucrose and centrifuged (800×g for 12 min; 4° C.). The supernatant (S1) was then centrifuged (22,000×g for 15 min; 4° C.), and the resulting pellet (P2) was resuspended in ice-cold modified Kreb's buffer (in mM: 126 NaCl, 4.8 KCl, 1.3 CaCl2, 16 sodium phosphate, 1.4 MgSO4, 11 dextrose, 1-ascorbic acid, pH 7.4). Assays were conducted in Kreb's buffer. Each assay tube contained synaptosomal tissue (i.e., resuspended P2 obtained from 1.5 mg of original wet weight striatal tissue) and 1 μM pargyline. Nonspecific values were determined in the presence of 100 μM cocaine. After preincubation of assay tubes for 10 min at 37° C., assays were initiated by the addition of [^3H]DA (0.5 nM final concentration). Samples were incubated at 37° C. for 3 min. Samples were then filtered through Whatman GF/B filters (Brandel, Gaithersburg, Md.) soaked previously in 0.05% polyethylenimine. Filters were washed rapidly 3 times with 3 ml of ice-cold 0.32 M sucrose using a Brandel filtering manifold. […] Remaining resuspended P2 samples were assayed for protein concentrations according to the method of Lowry et al. (1951). In MDMA preincubation experiments, samples were preincubated with 10 μM MDMA for 30 min at 37° C. After 30 min, resuspended P2 fractions were “washed” by centrifugation (22,000×g for 15 min; 4° C.). The resulting pellet (P3) was then resuspeded in ice-cold Kreb's buffer, and once again centrifuged (22,000×g for 15 min; 4° C.) to obtain a P4 pellet that was subsequently resuspended and assayed. [^3H]WIN35428 binding (0.5 nM final concentration) was conducted in phosphate-buffered 0.32 M sucrose, pH 7.4, with synaptosomes obtained from 2 mg (original wet weight) of striatal tissue per reaction tube, and samples were incubated on ice for 2 hr. Samples were then filtered through Whatman GF/B filters (Brandel, Gaithersburg, Md.) soaked previously in 0.05% polyethylenimine. […]

DAT [4] = molecular target: T1, DAT; test: [3H]WIN35428 binding in striatal synaptosomes prepared from treated rats; type: in vivo; conditions: αMT 150 mg/kg i.p., MDMA 4 x 10 mg/kg s.c.
Method: as §1

[5] = Striatal tissue DA content of treated rats (HPLC); type: in vivo, rat
Method: On the day of the assay, frozen tissue samples were thawed, sonicated for 3-5 s in tissue buffer (0.05 M sodium phosphate/0.03 M citric acid buffer with 15% methanol (v/v); pH 2.78), and centrifuged for 15 min at 22,000×g. Tissue pellets were retained and protein determined according to the method of Lowry et al. (1951). The supernatant was centrifuged a second time for 15 min at 22,000×g. 20 μl of supernatant were injected onto a high performance liquid chromatograph system coupled to an electrochemical detector (+0.73 V) for separation and quantitation of dopamine levels using the method of Chapin et al. (1986).

VMAT-2 [6] = molecular target: T3, VMAT-2 (Rattus norvegicus, UniProt Q01827); test: [3H]DHTBZ binding in purified striatal vesicles prepared from treated rats; conditions: rats
Method: Synaptic vesicles were obtained from synaptosomes prepared from rat striatum as described above. Synaptosomes were resuspended and homogenized in cold distilled deionized water. Osmolarity was restored by addition of HEPES and potassium tartrate 245 and 100 mM (final concentrations; pH 7.5), respectively. Samples were centrifuged for 20 min at 20,000×g (4° C.) to remove lysed synaptosomal membranes. MgSO4 (1 mM, final concentration) was added to the supernatant, which was then centrifuged for 45 min at 100,000×g (4° C.). The resulting vesicular pellet was resuspended in wash buffer at a concentration of 50 mg/ml (original tissue weight). […] Binding of [^3H]DHTBZ was performed as described by Teng et al. (1998). Briefly, 200 μl of the synaptic vesicle preparation (˜6 μg of protein) was incubated in wash buffer in the presence of [^3H]DHTBZ (2 nM final concentration) for 10 min at 25° C. The reaction was terminated by addition of 1 ml of cold wash buffer and rapid filtration through Whatman GF/F filters soaked in 0.5% polyethylenimine. Filters were washed three times with ice-cold wash buffer. Nonspecific binding was determined by coincubation with 20 μM tetrabenazine. All protein concentrations were determined by a BioRad protein assay (Bio-Rad, Richmond, Calif.).
Binding of [^3H]DHTBZ was performed as described by Teng et al. (1998). Briefly, 200 μl (˜6 μg protein) of the synaptic vesicle preparation was incubated in wash buffer in the presence of [^3H]DHTBZ (2 nM final concentration except in kinetic analyses wherein 0.25-500 nM DHTBZ was employed) for 10 m in at 25° C. The reaction was terminated by addition of 1 ml cold wash buffer and rapid filtration through Whatman GF/F filters soaked in 0.5% polyethylenimine. Filters were washed three times with ice-cold wash buffer. Radioactivity trapped in filters was counted using a liquid scintillation counter. Nonspecific binding was determined by coincubation with 20 μM TBZ. All protein concentrations were determined by a Bio-Rad protein assay (Bio-Rad Inc.).
Binding of[^3H]DHTBZ was performed as described by Teng et al. (1998). Briefly, 200 μl (˜5 μg protein) of the synaptic vesicle preparation was incubated in wash buffer in the presence of [^3H]DHTBZ (2 nM final concentration except in kinetic analyses wherein 0.25-500 nM DHTBZ was employed) for 10 m in at 25° C. The reaction was terminated by addition of 1 ml cold wash buffer and rapid filtration through Whatman GF/F filters soaked in 0.5% polyethylenimine. Filters were washed three times with ice-cold wash buffer. Radioactivity trapped in filters was counted using a liquid scintillation counter. Nonspecific binding was determined by coincubation with 20 μM TBZ. All protein concentrations were determined by a Bio-Rad protein assay (Bio-Rad Inc.).

VMAT-2 [7] = molecular target: VMAT-2 (Mus musculus, UniProt Q8BRU6); test: Vesicular [3H]dopamine uptake in striatal vesicles prepared from treated mice; type: in vivo; conditions: antagonist 2 mg/kg i.p. prior to each methamphetamine injection (4 x 10 mg/kg s.c.), 1 h
Method: (A. E. Fleckenstein, et al., J. Pharmacol Exp Ther. (1997) 282:834-838). Briefly, fresh tissue was homogenized in ice-cold 0.32 M sucrose. The homogenate was centrifuged (800×g for 12 min; 4° C.), and the supernatant (S1) was carefully removed and centrifuged (22,000×g for 15 min; 4° C.) to obtain the synaptosomal-containing pellet (P2). The resulting P2 were resuspended and homogenized in ice-cold distilled deionized water. Osmolarity was restore by addition 25 mM HEPES and 100 mM potassium tartrate (final concentration; pH 7.5 at 4° C. respectively). […] The resultant S3 removed and MgSO4 added (final concentration of [1 mM] pH 7.5 at 4° C.) and centrifuged at 100,000×g for 45 min. The final P4 were resuspended at 50 mg/ml (original tissue wet weight).

VMAT-2 [8] = molecular target: T3, VMAT-2; type: in vivo; parameters: purified striatal vesicles prepared from treated rats; from tissue; host or cells: striatum of male Sprague-Dawley rats (synaptic vesicles; P2, P3, S3 fractions)
Method: Osmolarity was restored by addition of N-(2-hydroxyethyl)-piperazine-N′-2-ethanesulfonic acid (HEPES) and potassium tartrate 25 mM and 100 mM (final concentrations; pH 7.5 at 4° C.), respectively.

[9] = Vesicular DA content in purified striatal vesicles of treated rats; type: in vivo, rat; conditions: rats, reserpine 10 mg/kg i.p. 6 and 1 h before decapitation
Method: Purified striatal vesicles were prepared as described above. The resulting vesicular pellet was sonicated for approximately 5 sec in cold tissue buffer (0.05 M sodium phosphate/0.03 M citric acid buffer with 15% methanol (v/v); pH 2.5) at a concentration of 100 mg/ml (original wet weight of tissue), and centrifuged for 15 min at 22,000×g. Tissue pellets were retained and protein was determined according to the method of Lowry et al. (1951). 40 μl of supernatant was injected onto a high performance liquid chromatograph system coupled to an electrochemical detector (+0.73 V) for separation and quantitation of DA levels using the method of Chapin et al. (1986).

T3 sequence (Q01827 whole entry): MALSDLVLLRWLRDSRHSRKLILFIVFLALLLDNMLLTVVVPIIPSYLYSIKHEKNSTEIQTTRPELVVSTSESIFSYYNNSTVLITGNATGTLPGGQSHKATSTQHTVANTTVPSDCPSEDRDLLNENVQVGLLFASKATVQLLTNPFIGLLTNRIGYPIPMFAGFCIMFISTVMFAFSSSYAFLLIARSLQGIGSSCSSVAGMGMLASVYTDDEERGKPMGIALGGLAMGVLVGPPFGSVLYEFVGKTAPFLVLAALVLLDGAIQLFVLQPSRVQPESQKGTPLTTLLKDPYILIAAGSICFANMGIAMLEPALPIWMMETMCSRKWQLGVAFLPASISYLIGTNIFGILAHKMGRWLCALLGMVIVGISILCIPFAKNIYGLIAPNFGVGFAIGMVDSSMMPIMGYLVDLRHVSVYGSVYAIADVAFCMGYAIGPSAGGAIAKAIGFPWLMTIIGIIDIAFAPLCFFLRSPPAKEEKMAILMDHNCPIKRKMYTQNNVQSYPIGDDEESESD
T1 sequence (P23977 whole entry): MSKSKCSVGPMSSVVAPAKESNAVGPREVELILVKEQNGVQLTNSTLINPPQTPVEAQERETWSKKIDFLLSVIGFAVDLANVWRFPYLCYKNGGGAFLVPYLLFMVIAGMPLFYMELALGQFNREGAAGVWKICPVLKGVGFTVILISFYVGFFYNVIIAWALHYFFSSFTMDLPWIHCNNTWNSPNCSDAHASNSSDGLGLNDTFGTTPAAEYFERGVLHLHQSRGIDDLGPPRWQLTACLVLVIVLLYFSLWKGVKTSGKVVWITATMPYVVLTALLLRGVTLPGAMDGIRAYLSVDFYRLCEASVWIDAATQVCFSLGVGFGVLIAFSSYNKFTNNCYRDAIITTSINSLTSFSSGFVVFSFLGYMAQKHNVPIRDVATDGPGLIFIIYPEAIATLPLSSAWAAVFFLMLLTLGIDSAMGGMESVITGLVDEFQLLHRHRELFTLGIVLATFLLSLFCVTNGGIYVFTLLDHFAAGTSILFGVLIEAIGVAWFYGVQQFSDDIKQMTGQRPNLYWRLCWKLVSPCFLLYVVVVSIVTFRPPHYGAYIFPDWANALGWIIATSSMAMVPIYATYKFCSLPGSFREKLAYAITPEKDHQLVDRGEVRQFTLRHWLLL
VMAT-2 (Mus musculus, UniProt Q8BRU6), sequence (Q8BRU6 whole entry): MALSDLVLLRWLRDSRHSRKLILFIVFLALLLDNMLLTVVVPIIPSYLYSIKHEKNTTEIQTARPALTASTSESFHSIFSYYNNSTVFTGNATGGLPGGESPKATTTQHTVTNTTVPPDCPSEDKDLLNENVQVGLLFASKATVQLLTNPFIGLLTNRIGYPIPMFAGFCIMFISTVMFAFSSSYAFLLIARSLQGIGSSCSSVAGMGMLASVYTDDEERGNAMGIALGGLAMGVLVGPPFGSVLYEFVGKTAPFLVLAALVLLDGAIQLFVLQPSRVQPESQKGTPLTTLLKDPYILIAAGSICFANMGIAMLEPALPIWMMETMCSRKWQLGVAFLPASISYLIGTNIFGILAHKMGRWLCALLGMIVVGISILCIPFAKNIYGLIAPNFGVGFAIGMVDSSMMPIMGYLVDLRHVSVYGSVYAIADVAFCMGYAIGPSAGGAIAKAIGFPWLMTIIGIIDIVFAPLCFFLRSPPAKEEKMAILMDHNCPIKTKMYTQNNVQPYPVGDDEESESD
T2 sequence (P23977 whole entry): as the sequence (P23977 whole entry) above

Structure (SMILES): CCCCCCCCCCCCC(=O)N1CCCCC1CNC(=O)[C@@H](N)CCCCN.Cl.Cl (some centres unmarked) [NPC15437]
- effect of PKC inhibitor pretreatment on the MDMA-induced deficit in vitro (DAT [1]): attenuated

Structure (SMILES): CC(=O)O.Cn1cc(C2=C(c3cn(CCCN)c4ccccc34)C(=O)NC2=O)c2ccccc21 [Ro31-7549, 2-[1-3(Aminopropyl)indol-3-yl]-3(1-methylindol-3-yl)maleimide, acetate]
- effect of PKC inhibitor pretreatment on the MDMA-induced deficit in vitro (DAT [1]): attenuated

Structure (SMILES): COC(=O)[C@H]1[C@@H](OC(=O)c2ccccc2)C[C@@H]2CC[C@H]1N2C [cocaine, (−)cocaine hydrochloride]
- decrease in VMAT-2 immunoreactivity in the P3 (synaptosomal membrane) fraction (VMAT-2 [2]; cocaine 30 mg/kg i.p. single): 33%
- increase in VMAT-2 immunoreactivity in the S3 (vesicle-enriched) fraction (VMAT-2 [2]; cocaine 30 mg/kg i.p. single): 80%

Structure (SMILES): CC(N)(Cc1ccc(O)cc1)C(=O)O.Cl (stereo not drawn) [αMT, α-methyl-p-tyrosine hydrochloride]
- effect of αMT pretreatment on the MDMA-induced decrease in DAT activity [3]: did not affect
- effect of αMT pretreatment on the MDMA-induced deficit in WIN35428 binding (DAT [4]): did not prevent
- striatal DA levels ([5]; αMT-treated rats, 150 mg/kg i.p.): 10.1±2.0 pg/1 μg protein

Structure (SMILES): CCc1cc(Cl)c(OC)c(C(=O)NC[C@@H]2CCCN2CC)c1O [eticlopride, (−)-Eticlopride hydrochloride]
- [3H]DHTBZ binding after antagonist per se (VMAT-2 [6]; antagonist 0.5 mg/kg i.p.): did not affect
- effect of antagonist pretreatment on the MPD-induced increase in [3H]DHTBZ binding (VMAT-2 [6]; antagonist 0.5 mg/kg i.p. 15 min prior to MPD 40 mg/kg s.c., 1 h): completely prevented
- effect of antagonist pretreatment on the methamphetamine-induced decrease in vesicular dopamine uptake (VMAT-2 [7]): attenuated
- effect of antagonist pretreatment on the MPD-induced increase in VMAT-2 immunoreactivity in the vesicular subcellular fraction (VMAT-2 [2]; antagonist 0.5 mg/kg i.p. 15 min prior to MPD 40 mg/kg s.c.): completely prevented
- effect of antagonist pretreatment on the METH-induced decrease in vesicular [3H]DA uptake (VMAT-2 [8]; rat, in vivo): attenuated
- effect of eticlopride on the MDMA-induced decrease in vesicular DA uptake (VMAT-2 [8]; rat, in vivo): attenuated
- vesicular [3H]DA uptake after antagonist per se (VMAT-2 [8]; rats, antagonist 0.5 mg/kg i.p.): did not affect
- effect of antagonist pretreatment on the MPD-induced increase in vesicular [3H]DA uptake (VMAT-2 [8]; rats, antagonist 0.5 mg/kg i.p. 15 min prior to MPD 40 mg/kg s.c., 1 h): attenuated

Structure (SMILES): COC(=O)[C@H]1[C@H]2C[C@@H]3c4[nH]c5cc(OC)ccc5c4CCN3C[C@H]2C[C@@H](OC(=O)c2cc(OC)c(OC)c(OC)c2)[C@@H]1OC [reserpine]
- striatal vesicular DA levels [9]: below the detection limit
- depletion in total striatal tissue DA levels ([5]; rats, reserpine 10 mg/kg i.p. 6 and 1 h before decapitation): > 98%

Reference: patent US20060241082A1, “Modulating vesicular monoamine transporter trafficking and function: a novel approach for the treatment of parkinson's disease” (priority 2002, published 2006)
